{"source": "patent US8466311B2", "about": "“Neuroprotective compositions and methods” (Sanford-Burnham Medical Research Institute, priority 2006, dated 2013)", "key": {"Keap1": {"molecular_target": "T1, Keap1 (Mus musculus, UniProt Q9Z2X8)", "T1 construct": "expressed in transfected cells; host or cells: COS7 cells", "T1 sequence (Q9Z2X8 whole entry)": "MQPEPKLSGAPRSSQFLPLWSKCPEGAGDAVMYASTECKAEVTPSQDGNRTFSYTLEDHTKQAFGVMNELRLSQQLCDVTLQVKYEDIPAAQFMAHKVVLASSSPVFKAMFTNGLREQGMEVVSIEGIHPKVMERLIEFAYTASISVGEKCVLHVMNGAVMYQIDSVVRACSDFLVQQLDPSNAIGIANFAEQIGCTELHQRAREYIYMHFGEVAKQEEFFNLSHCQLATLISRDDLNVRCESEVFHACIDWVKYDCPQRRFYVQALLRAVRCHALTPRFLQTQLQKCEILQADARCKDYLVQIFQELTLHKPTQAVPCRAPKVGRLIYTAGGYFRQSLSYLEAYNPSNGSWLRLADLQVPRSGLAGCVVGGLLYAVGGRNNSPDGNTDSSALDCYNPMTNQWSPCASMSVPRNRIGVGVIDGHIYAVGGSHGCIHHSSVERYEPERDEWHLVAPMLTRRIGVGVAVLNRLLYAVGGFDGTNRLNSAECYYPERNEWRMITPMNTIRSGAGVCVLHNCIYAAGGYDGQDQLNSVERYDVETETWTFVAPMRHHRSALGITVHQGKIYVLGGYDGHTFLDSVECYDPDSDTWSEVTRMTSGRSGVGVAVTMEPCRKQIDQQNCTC", "test": "Binding of CAB/CA to Keap1 and Keap1 deletion mutants (streptavidin precipitation)", "conditions": "PC12h cells transfected with Keap1 (non-HA-tagged)", "protocol": "(3) Expression vectors for HA-tagged Keap1 and Keap1 deletion mutants. These constructs were obtained from Dr. Akira Kobayashi of Tohoku University (Hosoya et al., J. Biol. Chem. 29:27244-27250, 2006; Kobayashi et al., Mol. Cell. Biol. 26:221-229, 2006).\nImmunoprecipitation with agarose-immobilized streptavidin or antibody. PC12h cells (CAB- or vehicle-treated) were lysed in RIPA buffer supplemented with protease inhibitor cocktail. The lysates were centrifuged at 15,000 rpm for 10 min at 4° C., after which the supernatants were incubated with agarose-immobilized streptavidin at 4° C. for 1 h. Alternatively, for immunoprecipitation with anti-Keap1, the cell lysates were incubated with the antibody at 4° C. overnight, after which protein A immobilized on Sepharose CL-4B was added and incubation continued at 4° C. for 1 h. Then, the complexes were washed three times with rinse buffer (150 mM NaCl, 50 mM Tris-HCl [pH 7.5], 0.1% NP-40, 1 mM EDTA, and 0.02% NaN3). SDS sample buffer was added, the mixture was boiled for 5 min, and the supernatants were subjected to SDS-PAGE. Immunoblotting was then performed as described above.\nCA activates the Keap1/Nrf2/ARE pathway. […] The initial reaction in this activation cascade is the binding of an electrophilic compound to specific cysteines on Keap1 protein (Hong et al., Chem. Res. Toxicol. 18: 1917-1926, 2005; Eggler et al., Proc. Nat. Acad. Sci. USA 102:10070-10075, 2005; Zhang et al., Mol. Cell. Biol. 10941-10953, 2004). Such binding initiates a cellular transcription pathway leading to induction of phase 2 enzymes (Talalay, Biofactors 12:5-11, 2000; Padmanabham et al., Mol. Cell 21:689-700, 2006; Itoh et al., Free Radic. Biol. Med. 36:1208-1213, 2004). Therefore, we examined the domains of Keap1 (designated BTB, IVR, and DGR) to determine those essential for binding to CA. Accordingly, for co-immunoprecipitation experiments, we transfected COS7 cells with DNA expressing either HA-tagged wild type Keap1 protein (HA-WT Keap1) or various deletion mutants of tagged Keap1 protein (HA-ΔBTB Keap1, HA-ΔIVR Keap1, and HA-ΔDGR Keap1). The transfected COS7 cells were then treated with vehicle or 10 μM CAB and lysed. We quantified the expression level of Keap1 protein in total cell lysates with anti-HA antibody. Each Keap1 mutant protein was expressed at a similar level of the predicted molecular weight (57 kDa for HA-ΔBTB Keap1, 53 kDa for HA-ΔIVR Keap1, and 37 kDa for HA-ΔDGR Keap1). Next, in order to detect Keap1/CAB complexes, we immunoprecipitated cell lysates with streptavidin and probed with anti-HA antibody. […] The requirement of the BTB domain for CA binding is in accord with prior results (Hong et al., Chem. Res. Toxicol. 18:1917-1926, 2005; Eggler et al., Proc. Nat. Acad. Sci. USA 102:10070-10075, 2005; Zhang et al., Mol. Cell. Biol. 24:10941-10953, 2004).\nAfter binding of the electrophilic quinone-form of CA to Keap1 protein, activation of the Keap1/Nrf2 pathway requires nuclear translocation of Nrf2 (Talalay, Biofactors 12:5-11, 2000; Padmanabham et al., Mol. Cell 21:689-700, 2006; Itoh et al., Free Radic. Biol. Med. 36:1208-1213, 2004). Thus, we next examined the intracellular distribution of Nrf2 protein in COS7 cells by immunofluorescence."}, "ARE core element": {"test_system": "ARE core element", "test": "ARE core element luciferase reporter (pAREluc) in HT22 cells", "assay_type": "cell-based", "protocol": "Cell cultures, transfection, and glutathione (GSH) measurement. […] Transfection was performed with Lipofectamine 2000 (Invitrogen). In the reporter gene assays, firefly luciferase activity in cell lysates was measured with a luminometer (Promega). Total GSH (reduced and oxidized) was determined as described (Lee et al., Biochem. Biophys. Res. Commun. 280:286-292, 2001).\nThe E1 and E2 enhancer sites in the H0-1 promoter each contain an ARE. […] Biol. 24:36-45, 2004; Gong et al., Antioxid. Redox Signal. 4:249-257, 2002). Because NEPP compounds have an electrophilic carbon at position #11 and can bind cysteine residues of cellular proteins, we studied this pathway of ARE activation. To provide direct evidence that NEPP11 could activate the H0-1 enhancer through an ARE, we studied transcriptional activation of a wild-type ARE core element (pAREluc) and a mutated form (pGC-AREIuc) (Lee et al., Biochem, Biophys. Res. Commun. 280:286-292, 2001). cDNA constructs represented wild-type\n(Kraft et al., J. Neurosci. 24:1101-1112, 2004)."}, "NFAT-binding site": {"test_system": "NFAT-binding site", "test": "Enhancer element luciferase reporter p3xNFATluc", "assay_type": "cell-based", "conditions": "NEPP11 2 μM", "protocol": "Because the E1 and E2 regions also contain other enhancer elements, we tested the effects of NEPP11 (2 μM) on the expression of luciferase activity derived from these elements, including the cAMP-responsive element (CRE; p3xCREluc), AP-1 binding site (p3xAP1luc), NF-κB binding site (p3xNF-κBluc), NFAT-binding site (p3xNFATluc), ETS-binding site (p3xETSluc), and MEF2-binding site (p3xMEF2luc)."}}, "data": [{"smiles": "CC(C)c1cc2c(c(O)c1O)[C@@]1(C(=O)O)CCCC(C)(C)[C@@H]1CC2", "note": "[CA, carnosic acid]", "values": [{"measurement": "complex formation with Keap1", "setting": "Keap1", "value": "formed CA/Keap1 complexes"}]}, {"smiles": "COC(=O)CCCCC/C=C1/C(=O)C=C[C@H]1CCCCCCc1ccc(C)cc1", "note": "[NEPP11]", "values": [{"measurement": "mutant ARE (pGC-AREluc) transcriptional activity", "setting": "ARE core element", "value": "unaffected"}, {"measurement": "wild-type ARE (pAREluc) transcriptional activity", "setting": "ARE core element; dose-dependent", "value": "up to seven-fold"}, {"measurement": "activity of p3xNFATluc", "setting": "NFAT-binding site", "value": "slightly depressed"}]}]}
